{"source": "patent US7285555B2", "about": "“6-aryl-7-halo-imidazo[1,2-a]pyrimidines as anticancer agents” (Wyeth Holdings Corporation, priority 2003, dated 2007)", "key": {"[1]": {"test_system": "MAP-rich tubulin", "assay": "Tubulin polymerization test procedure with MAP-rich tubulin", "type": "biochemical, bovine", "details": "MAP-rich tubulin with 1 mM GTP, compound 0.3 μM, at 20 min", "description": "(§1) Medium is RPMI-1640 with L-glutamine, supplemented with 10% heat-inactivated fetal calf serum, 100 units/mL penicillin, and 100 μg/mL streptomycin (Gibco, Grand Island, N.Y.). Microtubule-associated protein (MAP)-rich tubulin, containing about 70% tubulin and 30% MAPs (#ML113), and highly purified tubulin (>99% pure, #TL238), both from bovine brain, are obtained from Cytoskeleton, Inc., Denver, Colo. PEM buffer (80 mM piperazine-N,N′-bis[2-ethanesulfonic acid], pH 6.9, 1 mM ethylene glycol-bis(β-aminoethyl ether)-N,N,N′,N′-tetraacetic acid, 1 mM magnesium chloride) and guanosine 5′-triphosphate (GTP) are also obtained from Cytoskeleton. [^3H]paclitaxel, specific activity 14.7 Ci/mmol, is purchased from Moravek Biochemicals (Brea, Calif.). [^3H]vinblastine, specific activity 9.60 Ci/mmol and MicroSpin G-50 columns are obtained from Amersham Biosciences (Piscataway, N.J.). […] Other reagents are obtained from Sigma (St. Louis, Mo.).\nMAP-rich tubulin is dissolved in ice-cold PEM buffer containing 1 mM GTP (GPEM buffer) at a concentration of 1.3 mg/mL. The solution is centrifuged at top speed in an Eppendorf model 5415C microcentrifuge (Brinkmann Instruments, Westbury, N.Y.) for 10 min at 40 immediately before use. The tubulin solution is added to wells of a ½-area 96-well plate (Costar No. 3696, Corning, Inc., Corning, N.Y.) already containing the compounds of interest. Each compound is tested in duplicate at a final concentration of 0.3 μM in a volume of 110 μL per well. The final DMSO concentration in all wells is 0.3%. Control reactions, which receive compound solvent only, are done in quadruplicate. The plate is put in a SpectraMax Plus plate reader (Molecular Devices Corp. Sunnyvale, Calif.) thermostated at 240 and the absorbance of each well at 340 nm, a measure of the appearance of turbidity due to tubulin polymer formation, is determined every minute for 60 minutes. The absorbance at time 0 for each well is subtracted from each of the subsequent absorbance readings for that well, and then the duplicates are averaged.\nIn this assay, control reactions with MAP-rich tubulin show an S-shaped absorbance profile characterized by three phases: first, a lag phase during which no change in absorbance occurs; second, a polymerization phase in which absorbance increases; and third, a plateau phase in which absorbance has reached a maximum and little or no further change occurs. Polymerization enhancers such as paclitaxel and docetaxel shorten or eliminate the lag phase, increase the rate of the polymerization phase, and often increase the height of the plateau. […] This has been expressed quantitatively in Table 6 by dividing the mean A340 of each sample at 20 min by the mean A340 of the control at 20 min to give a fold enhancement over control. […]"}, "[2]": {"test_system": "polymerized tubulin (microtubules)", "assay": "Competitive binding test procedure, [3H]paclitaxel", "set-up": "species or system bovine", "details": "competitor 20 μM, [3H]paclitaxel 2.1 μM", "description": "as §1\n(§2) The binding of examples of this invention to highly purified tubulin is studied by competitive inhibition methods. […] To study possible competition at the taxane site, on the other hand, polymerized tubulin (microtubules) is used because paclitaxel binds preferentially to microtubules.\nFor competition with [^3H]paclitaxel, highly purified tubulin is dissolved in PEM buffer containing 0.75 M glutamate and 25 μM dideoxy-GTP; final protein concentration is 0.25 to 0.35 mg/mL (2.5 to 3.5 μM). These conditions foster the rapid formation of short, stable microtubule polymers (Hamel, E., del Campo, A. A., and Lin, C. M. Stability of tubulin polymers formed with dideoxyguanosine nucleotides in the presence and absence of microtubule-associated proteins. J. Biol. Chem., 259: 2501-2508, 1984). […] The reactions are then centrifuged at top speed in an Eppendorf 5415C microfuge for 20 min at room temperature in order to pellet the microtubule protein. Triplicate aliquots of each supernatant are mixed with scintillation fluid and counted in a liquid scintillation spectrometer. From the amount of radioactivity in the supernatants and the measured total starting radioactivity, the amount of [^3H]paclitaxel bound to pelleted microtubule protein is calculated. The ability of each competitor to inhibit radioligand binding to pelleted protein is expressed as a percent of controls without any competitor."}, "[3]": {"test_system": "pure tubulin", "assay": "Tubulin polymerization test procedure with pure tubulin", "type": "biochemical, bovine", "details": "pure tubulin without added GTP", "description": "as §1\nThe procedure with pure tubulin is similar except for the following changes. […] The supernatant after centrifugation is dispensed to a ½-area 96-well plate already containing compounds. Each compound is tested in duplicate at a final concentration of 24.3 μM. The plate reader μs thermostated at 35°."}, "[4]": {"test_system": "highly purified tubulin (tubulin heterodimer)", "assay": "Competitive binding test procedure, [3H]colchicine", "set-up": "species or system bovine", "details": "competitor 100 μM, [3H]colchicine 50 nM", "description": "as §1, §2\n(§3) Highly purified tubulin is dissolved in PEM buffer without GTP and used at a final concentration of 1.0 to 1.3 mg/ml (10 to 13 μM). […] These solutions are incubated at 240 for 1 hr and then applied to MicroSpin G-50 columns which are centrifuged for 2 min at 3000 rpm in an Eppendorf 5415C microfuge. An aliquot of each column effluent (containing tubulin and bound radioligand) is mixed with scintillation fluid and counted in a liquid scintillation spectrometer. […] Quadruplicates are averaged, and the ability of the competitor to inhibit the binding of the radioligand is expressed as a percentage of control binding in the absence of any competitor."}, "[5]": {"test_system": "highly purified tubulin (tubulin heterodimer)", "assay": "Competitive binding test procedure, [3H]vinblastine", "set-up": "species or system bovine", "details": "competitor 100 μM, [3H]vinblastine 100 nM", "description": "as §1, §2, §3"}}, "data": [{"smiles": "CC[C@]1(O)C[C@H]2CN(CCc3c([nH]c4ccccc34)[C@@](C(=O)OC)(c3cc4c(cc3OC)N(C=O)[C@H]3[C@@](O)(C(=O)OC)[C@H](OC(C)=O)[C@]5(CC)C=CCN6CC[C@]43[C@@H]65)C2)C1", "note": "[Vincristine, reference compound]", "values": [{"measurement": "A340 Compound / A340 Control (fold enhancement over control)", "setting": "[1]", "result": 0.5}, {"measurement": "[3H]Paclitaxel binding, Mean, percent of binding to control without competitor", "setting": "[2]", "result": 22, "unit": "%"}, {"measurement": "polymerization of pure tubulin without GTP (in words)", "setting": "[3]", "result": "no activity"}, {"measurement": "[3H]Colchicine binding, Mean, percent of binding to control without competitor", "setting": "[4]", "result": 99, "unit": "%"}, {"measurement": "[3H]Vinblastine binding, Mean, percent of binding to control without competitor", "setting": "[5]", "result": 5, "unit": "%"}]}]}
